# System: MV-4-11 cells
# Assay: Gene expression microarray analysis (Affymetrix PrimeView) and GSEA
# Format: cell-based, human
# Parameters: RFU PODN (11730768_x_at) / Fold change /veh PODN (11730768_x_at) / RFU LINC00158 (11744669_a_at) / Fold change /veh LINC00158 (11744669_a_at) / RFU DUSP10 (11751237_a_at) / Fold change /veh DUSP10 (11751237_a_at) / RFU ID3 (11757404_x_at) / Fold change /veh ID3 (11757404_x_at) / RFU PLEKHG5 (11737974_s_at) / Fold change /veh PLEKHG5 (11737974_s_at) / RFU LRRC4B (11730491_at) / Fold change /veh LRRC4B (11730491_at) / RFU GIMAP4 (11747438_a_at) / Fold change /veh GIMAP4 (11747438_a_at) / RFU KRT8 (11758183_x_at) / Fold change /veh KRT8 (11758183_x_at) / RFU CNN1 (11734310_a_at) / Fold change /veh CNN1 (11734310_a_at) / RFU VPS37D (11726825_at) / Fold change /veh VPS37D (11726825_at) / RFU C10orf10 (11716522_x_at) / Fold change /veh C10orf10 (11716522_x_at) / RFU KIR2DL2 /// KIR2DL4 /// KIR2DL5A /// KIR2DL5B /// KIR2DS1 /// KIR2DS2 /// KIR2DS3 /// KIR2DS4 /// KIR3DL3 /// KIR3DL3 /// KIR3DS1 (11738374_at) / Fold change /veh KIR2DL2 /// KIR2DL4 /// KIR2DL5A /// KIR2DL5B /// KIR2DS1 /// KIR2DS2 /// KIR2DS3 /// KIR2DS4 /// KIR3DL3 /// KIR3DL3 /// KIR3DS1 (11738374_at) / RFU C1QL1 (11718748_at) / Fold change /veh C1QL1 (11718748_at) / RFU TMPRSS4 (11747572_a_at) / Fold change /veh TMPRSS4 (11747572_a_at) / RFU HAMP (11756126_x_at) / Fold change /veh HAMP (11756126_x_at) / RFU RNFT2 (11725882_a_at) / Fold change /veh RNFT2 (11725882_a_at) / RFU NR4A2 (11747474_a_at) / Fold change /veh NR4A2 (11747474_a_at) / RFU ABCC12 (11746883_a_at) / Fold change /veh ABCC12 (11746883_a_at) / RFU TMEM136 (11760407_x_at) / Fold change /veh TMEM136 (11760407_x_at) / RFU CLDN22 /// WWC2 (11732394_at) / Fold change /veh CLDN22 /// WWC2 (11732394_at) / RFU HLA-DPB1 (11760878_x_at) / Fold change /veh HLA-DPB1 (11760878_x_at) / RFU SPINT1 (11716480_a_at) / Fold change /veh SPINT1 (11716480_a_at) / RFU GAP43 (11754022_s_at) / Fold change /veh GAP43 (11754022_s_at) / RFU A4GNT (11735810_at) / Fold change /veh A4GNT (11735810_at) / RFU PRB3 (11715151_x_at) / Fold change /veh PRB3 (11715151_x_at) / RFU TUBB4B (11761932_at) / Fold change /veh TUBB4B (11761932_at) / RFU CAPN14 (11732068_a_at) / Fold change /veh CAPN14 (11732068_a_at) / RFU TMCC2 (11721928_a_at) / Fold change /veh TMCC2 (11721928_a_at) / RFU IRGQ (11745062_a_at) / Fold change /veh IRGQ (11745062_a_at) / RFU FAM174B (11720279_a_at) / Fold change /veh FAM174B (11720279_a_at) / RFU TMPRSS4 (11748680_a_at) / Fold change /veh TMPRSS4 (11748680_a_at) / RFU FAM212B (11763350_a_at) / Fold change /veh FAM212B (11763350_a_at) / RFU PLEKHG5 (11743358_a_at) / Fold change /veh PLEKHG5 (11743358_a_at) / RFU ZSCAN30 (11745921_a_at) / Fold change /veh ZSCAN30 (11745921_a_at) / RFU CMKLR1 (11741424_a_at) / Fold change /veh CMKLR1 (11741424_a_at) / RFU LOC101060620 /// MAPK8IP1 (11723275_at) / Fold change /veh LOC101060620 /// MAPK8IP1 (11723275_at) / RFU SPTSSB (11747773_x_at) / Fold change /veh SPTSSB (11747773_x_at) / RFU PRSS12 (11739890_at) / Fold change /veh PRSS12 (11739890_at) / RFU BIN1 (11741810_x_at) / Fold change /veh BIN1 (11741810_x_at) / RFU WNT11 (11732464_a_at) / Fold change /veh WNT11 (11732464_a_at) / RFU C10orf10 (11716521_a_at) / Fold change /veh C10orf10 (11716521_a_at) / RFU C5orf56 (11738089_at) / Fold change /veh C5orf56 (11738089_at) / RFU CYB561 (11721691_x_at) / Fold change /veh CYB561 (11721691_x_at) / RFU ANKRD19P (11752326_a_at) / Fold change /veh ANKRD19P (11752326_a_at) / RFU OR2T12 /// OR2T33 /// OR2T8 (11738714_s_at) / Fold change /veh OR2T12 /// OR2T33 /// OR2T8 (11738714_s_at) / RFU VCAN (11748164_a_at) / Fold change /veh VCAN (11748164_a_at) / RFU JSRP1 (11732532_at) / Fold change /veh JSRP1 (11732532_at) / RFU KRTAP10-11 (11738290_x_at) / Fold change /veh KRTAP10-11 (11738290_x_at) / RFU MYO3A (11730013_a_at) / Fold change /veh MYO3A (11730013_a_at) / RFU EBF3 (11725865_a_at) / Fold change /veh EBF3 (11725865_a_at) / RFU CAMK2N1 (11719241_x_at) / Fold change /veh CAMK2N1 (11719241_x_at) / RFU C5orf56 (11738088_a_at) / Fold change /veh C5orf56 (11738088_a_at) / RFU OLFML3 (11715873_a_at) / Fold change /veh OLFML3 (11715873_a_at) / RFU LOC100653217 /// NTM (11731650_a_at) / Fold change /veh LOC100653217 /// NTM (11731650_a_at) / RFU MAPK11 (11762145_a_at) / Fold change /veh MAPK11 (11762145_a_at) / RFU FIZ1 (11724087_x_at) / Fold change /veh FIZ1 (11724087_x_at) / RFU OASL (11726364_x_at) / Fold change /veh OASL (11726364_x_at) / RFU SOX15 (11748057_x_at) / Fold change /veh SOX15 (11748057_x_at) / RFU CD79A (11719716_a_at) / Fold change /veh CD79A (11719716_a_at) / RFU HIST1H1D (11736915_at) / Fold change /veh HIST1H1D (11736915_at) / RFU CASKIN2 (11723855_a_at) / Fold change /veh CASKIN2 (11723855_a_at) / RFU LOC730098 (11760151_x_at) / Fold change /veh LOC730098 (11760151_x_at) / RFU OR4N2 (11742367_at) / Fold change /veh OR4N2 (11742367_at) / RFU PRRT2 (11749266_a_at) / Fold change /veh PRRT2 (11749266_a_at) / RFU SNX32 (11753110_a_at) / Fold change /veh SNX32 (11753110_a_at) / RFU CDHR5 (11726645_a_at) / Fold change /veh CDHR5 (11726645_a_at) / RFU RCAN1 (11760418_a_at) / Fold change /veh RCAN1 (11760418_a_at) / RFU FAM167A (11723789_a_at) / Fold change /veh FAM167A (11723789_a_at) / RFU FAM26E (11764081_at) / Fold change /veh FAM26E (11764081_at) / RFU ISYNA1 (11749810_s_at) / Fold change /veh ISYNA1 (11749810_s_at) / RFU ACY1 (11761880_at) / Fold change /veh ACY1 (11761880_at) / RFU 11764098_at / Fold change /veh 11764098_at / RFU SAMD14 (11745864_x_at) / Fold change /veh SAMD14 (11745864_x_at) / RFU NPB (11741838_a_at) / Fold change /veh NPB (11741838_a_at) / RFU TMPRSS6 (11731388_a_at) / Fold change /veh TMPRSS6 (11731388_a_at) / RFU KRTAP10-2 (11738614_at) / Fold change /veh KRTAP10-2 (11738614_at) / RFU ARHGAP8 /// PRR5-ARHGAP8 (11727945_x_at) / Fold change /veh ARHGAP8 /// PRR5-ARHGAP8 (11727945_x_at) / RFU KRTAP5-7 /// NADSYN1 (11734609_at) / Fold change /veh KRTAP5-7 /// NADSYN1 (11734609_at) / RFU RASL12 (11751679_a_at) / Fold change /veh RASL12 (11751679_a_at) / RFU CDKN2B (11736163_a_at) / Fold change /veh CDKN2B (11736163_a_at) / RFU PRF1 (11729649_at) / Fold change /veh PRF1 (11729649_at) / RFU, ZNF638 /// ZNF638-IT1 / Fold change vs veh, ZNF638 /// ZNF638-IT1 / RFU, PANK3 / Fold change vs veh, PANK3 / RFU, SH3YL1 / Fold change vs veh, SH3YL1 / RFU, ZEB2 / Fold change vs veh, ZEB2 / RFU, NRIP1 / Fold change vs veh, NRIP1 / RFU, PTTG1IP / Fold change vs veh, PTTG1IP / RFU, CAPN2 / Fold change vs veh, CAPN2 / RFU, MED14 / Fold change vs veh, MED14 / RFU, SNORA58 / Fold change vs veh, SNORA58 / RFU, C1orf63 / Fold change vs veh, C1orf63 / RFU, LRRFIP1 / Fold change vs veh, LRRFIP1 / RFU, NDUFAF7 / Fold change vs veh, NDUFAF7 / RFU, SLC12A2 / Fold change vs veh, SLC12A2 / RFU, IBTK / Fold change vs veh, IBTK / RFU, ESF1 / Fold change vs veh, ESF1 / Fold change vs veh, TMEM50B / RFU, TAOK1 / Fold change vs veh, TAOK1 / RFU, ACBD3 / Fold change vs veh, ACBD3 / RFU, TMA16 / Fold change vs veh, TMA16 / RFU, RWDD3 / Fold change vs veh, RWDD3 / RFU, BCAT1 / Fold change vs veh, BCAT1 / RFU, EDEM3 / Fold change vs veh, EDEM3 / RFU, TMEM33 / Fold change vs veh, TMEM33 / RFU, WDR75 / Fold change vs veh, WDR75 / RFU, AHCTF1 / Fold change vs veh, AHCTF1 / RFU, TFRC / Fold change vs veh, TFRC / RFU, ZDHHC17 / Fold change vs veh, ZDHHC17 / RFU, NOM1 / Fold change vs veh, NOM1 / RFU, ARL8B / Fold change vs veh, ARL8B / RFU, ZBTB11 / Fold change vs veh, ZBTB11 / RFU, TAMM41 / Fold change vs veh, TAMM41 / RFU, KIAA1704 /// LOC100996395 / Fold change vs veh, KIAA1704 /// LOC100996395 / RFU, ING1 / Fold change vs veh, ING1 / RFU, TRMT61B / Fold change vs veh, TRMT61B / RFU, FUBP3 / Fold change vs veh, FUBP3 / RFU, TP53 / Fold change vs veh, TP53 / RFU, TNKS2 / Fold change vs veh, TNKS2 / RFU, ZFP14 / Fold change vs veh, ZFP14 / RFU, ACTR2 / Fold change vs veh, ACTR2 / RFU, PPP3R1 / Fold change vs veh, PPP3R1 / RFU, PIK3R1 / Fold change vs veh, PIK3R1 / RFU, HNRNPA1 / Fold change vs veh, HNRNPA1 / RFU, RNF170 / Fold change vs veh, RNF170 / RFU, ZNF28 / Fold change vs veh, ZNF28 / RFU, RNGTT / Fold change vs veh, RNGTT / RFU, OGT / Fold change vs veh, OGT / RFU, BRD1 / Fold change vs veh, BRD1 / RFU, MARS / Fold change vs veh, MARS / RFU, ZNF655 / Fold change vs veh, ZNF655 / RFU, FAHD1 / Fold change vs veh, FAHD1 / RFU, BDP1 / Fold change vs veh, BDP1 / RFU, LRRCC1 / Fold change vs veh, LRRCC1 / RFU, ARID1A / Fold change vs veh, ARID1A / RFU, ZNF146 / Fold change vs veh, ZNF146 / RFU, ZNF330 / Fold change vs veh, ZNF330 / RFU, GPN3 / Fold change vs veh, GPN3 / RFU, C9orf123 / Fold change vs veh, C9orf123 / RFU, N4BP2L2 / Fold change vs veh, N4BP2L2 / RFU, ARFIP1 / Fold change vs veh, ARFIP1 / RFU, FAM179B / Fold change vs veh, FAM179B / RFU, BCL10 / Fold change vs veh, BCL10 / RFU, UHRF1BP1L / Fold change vs veh, UHRF1BP1L / RFU, BET1 / Fold change vs veh, BET1 / RFU, CNOT2 / Fold change vs veh, CNOT2 / RFU, ZNF268 / Fold change vs veh, ZNF268 / Fold change vs veh, ZNF507 / RFU, DGCR2 / Fold change vs veh, DGCR2 / RFU, WDSUB1 / Fold change vs veh, WDSUB1 / Fold change vs veh, HSP90B1 /// MIR3652 / RFU, ADSS / Fold change vs veh, ADSS / RFU, GK / Fold change vs veh, GK / RFU, ZNF148 / Fold change vs veh, ZNF148 / RFU, TAF9 / Fold change vs veh, TAF9 / RFU, SLC1A5 / Fold change vs veh, SLC1A5 / RFU, SLMO2 / Fold change vs veh, SLMO2 / RFU, ABCC4 / Fold change vs veh, ABCC4 / RFU, LOC101060439 /// RAP1B / Fold change vs veh, LOC101060439 /// RAP1B / RFU, RFX7 / Fold change vs veh, RFX7 / RFU, GTPBP10 / Fold change vs veh, GTPBP10 / RFU, CNEP1R1 / Fold change vs veh, CNEP1R1 / RFU, BIVM-ERCC5 /// ERCC5 / Fold change vs veh, BIVM-ERCC5 /// ERCC5 / RFU, ILF3 / Fold change vs veh, ILF3 / RFU 11762660_at / Fold change /veh 11762660_at / RFU VCAN (11757783_s_at) / Fold change /veh VCAN (11757783_s_at) / RFU DDX43 (11728927_at) / Fold change /veh DDX43 (11728927_at) / RFU KRT8 (11758188_x_at) / Fold change /veh KRT8 (11758188_x_at) / RFU NKD1 (11759106_at) / Fold change /veh NKD1 (11759106_at) / RFU SRD5A1 (11742802_a_at) / Fold change /veh SRD5A1 (11742802_a_at) / RFU TPSAB1 /// TPSB2 (11721975_s_at) / Fold change /veh TPSAB1 /// TPSB2 (11721975_s_at) / RFU GSTM3 (11746129_a_at) / Fold change /veh GSTM3 (11746129_a_at) / RFU IL23R (11737362_x_at) / Fold change /veh IL23R (11737362_x_at) / RFU TMEM51 (11727254_a_at) / Fold change /veh TMEM51 (11727254_a_at) / RFU PIWIL2 (11732686_x_at) / Fold change /veh PIWIL2 (11732686_x_at) / RFU ORM1 (11744905_x_at) / Fold change /veh ORM1 (11744905_x_at) / RFU CCDC152 (11743942_at) / Fold change /veh CCDC152 (11743942_at) / RFU ECM1 (11717891_a_at) / Fold change /veh ECM1 (11717891_a_at) / RFU IL23R (11748794_a_at) / Fold change /veh IL23R (11748794_a_at) / RFU TNFAIP8L3 (11732012_x_at) / Fold change /veh TNFAIP8L3 (11732012_x_at) / RFU MBOAT4 (11741988_at) / Fold change /veh MBOAT4 (11741988_at) / RFU 11764193_at / Fold change /veh 11764193_at / RFU TMEM53 (11763286_at) / Fold change /veh TMEM53 (11763286_at) / RFU MAGEB2 (11727129_at) / Fold change /veh MAGEB2 (11727129_at) / RFU TMEM200A (11744735_a_at) / Fold change /veh TMEM200A (11744735_a_at) / RFU CCDC152 (11751479_a_at) / Fold change /veh CCDC152 (11751479_a_at) / RFU FAM211A (11726209_a_at) / Fold change /veh FAM211A (11726209_a_at) / RFU RGS16 (11746705_a_at) / Fold change /veh RGS16 (11746705_a_at) / RFU VCAN (11755009_s_at) / Fold change /veh VCAN (11755009_s_at) / RFU RHOB (11743442_s_at) / Fold change /veh RHOB (11743442_s_at) / RFU RGS16 (11720943_a_at) / Fold change /veh RGS16 (11720943_a_at) / RFU RGS16 (11720944_at) / Fold change /veh RGS16 (11720944_at) / RFU, VPS4B / Fold change vs veh, VPS4B / RFU, CREB1 / Fold change vs veh, CREB1 / RFU, DNAJC13 / Fold change vs veh, DNAJC13 / RFU, GNAQ / Fold change vs veh, GNAQ / RFU, CDK5R1 / Fold change vs veh, CDK5R1 / RFU, ZRANB3 / Fold change vs veh, ZRANB3 / RFU, CUL4A / Fold change vs veh, CUL4A / RFU, CCNY / Fold change vs veh, CCNY / RFU, UFL1 / Fold change vs veh, UFL1 / RFU, COG3 / Fold change vs veh, COG3 / RFU, DIAPH2 / Fold change vs veh, DIAPH2 / RFU, SKA2 / Fold change vs veh, SKA2 / RFU, AFF3 / Fold change vs veh, AFF3 / RFU, LMF1 / Fold change vs veh, LMF1 / RFU, IPO11 / Fold change vs veh, IPO11 / RFU, DFFB / Fold change vs veh, DFFB / RFU, FOXP1 / Fold change vs veh, FOXP1 / RFU, CARD8 / Fold change vs veh, CARD8 / RFU, STRN3 / Fold change vs veh, STRN3 / RFU, ADK / Fold change vs veh, ADK / RFU, RASSF2 / Fold change vs veh, RASSF2 / RFU, WIPF1 / Fold change vs veh, WIPF1 / RFU, LARP1B / Fold change vs veh, LARP1B / RFU, RASA1 / Fold change vs veh, RASA1 / RFU, RB1 / Fold change vs veh, RB1 / RFU, PPFIA1 / Fold change vs veh, PPFIA1 / RFU, MAT2A / Fold change vs veh, MAT2A / RFU, CCT5 / Fold change vs veh, CCT5 / RFU, WDR92 / Fold change vs veh, WDR92 / RFU, CUX1 / Fold change vs veh, CUX1 / RFU, TTC7A / Fold change vs veh, TTC7A / RFU, TMEM135 / Fold change vs veh, TMEM135 / RFU, DEPTOR / Fold change vs veh, DEPTOR / RFU, CPM / Fold change vs veh, CPM / RFU, DNAJB6 / Fold change vs veh, DNAJB6 / RFU, CACNA2D3 / Fold change vs veh, CACNA2D3 / RFU, DTX4 / Fold change vs veh, DTX4 / RFU, TFCP2 / Fold change vs veh, TFCP2 / RFU, GMCL1 /// GMCL1P1 / Fold change vs veh, GMCL1 /// GMCL1P1 / RFU, AEBP2 / Fold change vs veh, AEBP2 / RFU, SNHG1 /// SNORD22 /// SNORD25 /// SNORD26 /// SNORD27 /// SNORD28 /// SNORD29 /// SNORD31 / Fold change vs veh, SNHG1 /// SNORD22 /// SNORD25 /// SNORD26 /// SNORD27 /// SNORD28 /// SNORD29 /// SNORD31 / Fold change (Aza/veh), C12orf56 (ProbeSet 11735607_a_at) / Fold change (ACY-1035/veh), C12orf56 (ProbeSet 11735607_a_at) / Fold change (Aza/veh), FGFR1OP (ProbeSet 11751329_s_at) / Fold change (ACY-1035/veh), FGFR1OP (ProbeSet 11751329_s_at) / Fold change (Aza/veh), VPS36 (ProbeSet 11739960_a_at) / Fold change (ACY-1035/veh), VPS36 (ProbeSet 11739960_a_at) / RFU SYPL1 (11715823_x_at) / Fold change /veh SYPL1 (11715823_x_at) / RFU IGFBP7 (11715501_s_at) / Fold change /veh IGFBP7 (11715501_s_at) / RFU REEP3 (11722064_at) / Fold change /veh REEP3 (11722064_at) / RFU IGLL1 (11728026_x_at) / Fold change /veh IGLL1 (11728026_x_at): dose or concentration left out as unconfirmed
# Conditions: MV-4-11 cells, 48 hours
smiles,measurement,value
Nc1ncn([C@@H]2O[C@H](CO)[C@@H](O)[C@H]2O)c(=O)n1 [azacitidine],Fold change /veh IL23R (11737362_x_at),1.70
